Experimental data: ChEMBL document CHEMBL3885861, “Open TG-GATES”

Species on record: Rattus norvegicus
Experiment: Open TG-GATES - Regimen: Daily Repeat
Assay type: toxicity, organism-based, Sprague-Dawley
Design: regimen Daily Repeat, gender Male, age 6 weeks
Conditions: in vivo, po, 100 mg/kg, route gavage, dose level Middle; for APTT / Bas / Eos / Fbg / Hb / Ht / Lym / MCH / MCHC / MCV / Mono / Neu / PT / Plat / RBC / Ret / WBC: tissue Blood; for KIDNEY_L / KIDNEY_R / KIDNEY_TOTAL: tissue Kidney; for LIVER: tissue Liver; for A/G / ALP / ALT / AST / BUN / CRE / Ca / Cl / DBIL / GLC / IP / K / LDH / Na / PL / RALB / TBIL / TC / TG / TP / gamma-GTP: tissue Plasma

Work on `C[C@]12CCC(=O)C=C1CC[C@@H]1[C@@H]2CC[C@@]2(C)[C@H]1CC[C@]2(C)O` [METHYLTESTOSTERONE] yielded a TERMINAL_BW (72 h, time 3 day) of 237.7 g, an APTT (72 h, time 3 day) of 15.9 s and a Bas (72 h, time 3 day) of 0%. For the same compound, the Eos (72 h, time 3 day) was 1%, the Fbg (72 h, time 3 day) was 325.4 mg/dL and the Hb (72 h, time 3 day) was 13.7 g/dL. The Ht (72 h, time 3 day) was 40.1%, the Lym (72 h, time 3 day) was 73.6% and the MCH (72 h, time 3 day) was 21.9 pg. For the same compound, the MCHC (72 h, time 3 day) was 34%, the MCV (72 h, time 3 day) was 64.5 fL and the Mono (72 h, time 3 day) was 2.4%. It also gave a Neu (72 h, time 3 day) of 22.6%, a PT (72 h, time 3 day) of 13 s and a Plat (72 h, time 3 day) of 107 x10_4/uL. For the same compound, the RBC (72 h, time 3 day) was 623.4 x10_4/ul, the Ret (72 h, time 3 day) was 7% and the WBC (72 h, time 3 day) was 71.4 x10_2/uL. The KIDNEY_L (72 h, time 3 day) was 1.1 g, the KIDNEY_R (72 h, time 3 day) was 1 g and the KIDNEY_TOTAL (72 h, time 3 day) was 2.1 g. It also gave an LIVER (72 h, time 3 day) of 11.9 g, an A/G (72 h, time 3 day) of 0.9 and an ALP (72 h, time 3 day) of 1787 IU/L. For the same compound, the ALT (72 h, time 3 day) was 41.8 IU/L, the AST (72 h, time 3 day) was 65.2 IU/L and the BUN (72 h, time 3 day) was 14.6 mg/dL. It also gave a CRE (72 h, time 3 day) of 0.2 mg/dL, a Ca (72 h, time 3 day) of 11.1 mg/dL and a Cl (72 h, time 3 day) of 107.2 meq/L. The DBIL (72 h, time 3 day) was 0.02 mg/dL, the GLC (72 h, time 3 day) was 180 mg/dL and the IP (72 h, time 3 day) was 8.2 mg/dL. For the same compound, the K (72 h, time 3 day) was 4.1 meq/L, the LDH (72 h, time 3 day) was 77.4 IU/L and the Na (72 h, time 3 day) was 143.4 meq/L. For the same compound, the PL (72 h, time 3 day) was 135 mg/dL, the RALB (72 h, time 3 day) was 2.8 g/dL and the TBIL (72 h, time 3 day) was 0.026 mg/dL. For the same compound, the TC (72 h, time 3 day) was 55 mg/dL, the TG (72 h, time 3 day) was 155.2 mg/dL and the TP (72 h, time 3 day) was 6 g/dL. For the same compound, the gamma-GTP (72 h, time 3 day) was 1 IU/L, the TERMINAL_BW ([…], time 7 day) was 271.1 g and the TERMINAL_BW ([…], time 14 day) was 314.6 g. The TERMINAL_BW ([…], time 28 day) was 402.8 g, the APTT ([…], time 7 day) was 15.7 s and the Bas ([…], time 7 day) was 0%. It also gave an Eos ([…], time 7 day) of 1%, a Fbg ([…], time 7 day) of 324.2 mg/dL and a Hb ([…], time 7 day) of 13.9 g/dL. For the same compound, the Ht ([…], time 7 day) was 40.8%, the Lym ([…], time 7 day) was 79% and the MCH ([…], time 7 day) was 21 pg. It also gave an MCHC ([…], time 7 day) of 34.1%, an MCV ([…], time 7 day) of 61.4 fL and a Mono ([…], time 7 day) of 2.6%. For the same compound, the Neu ([…], time 7 day) was 16.8%, the PT ([…], time 7 day) was 13.4 s and the Plat ([…], time 7 day) was 116 x10_4/uL. It also gave an RBC ([…], time 7 day) of 663.8 x10_4/ul, a Ret ([…], time 7 day) of 5.3% and a WBC ([…], time 7 day) of 72.5 x10_2/uL. It also gave an APTT ([…], time 14 day) of 19.7 s, a Bas ([…], time 14 day) of 0.2% and an Eos ([…], time 14 day) of 0.6%. For the same compound, the Fbg ([…], time 14 day) was 304 mg/dL, the Hb ([…], time 14 day) was 14.3 g/dL and the Ht ([…], time 14 day) was 41%. The Lym ([…], time 14 day) was 78.2%, the MCH ([…], time 14 day) was 20.4 pg and the MCHC ([…], time 14 day) was 34.9%. For the same compound, the MCV ([…], time 14 day) was 58.5 fL, the Mono ([…], time 14 day) was 3.2% and the Neu ([…], time 14 day) was 17.2%. The PT ([…], time 14 day) was 13.5 s, the Plat ([…], time 14 day) was 113.1 x10_4/uL and the RBC ([…], time 14 day) was 701.4 x10_4/ul. The Ret ([…], time 14 day) was 3.6%, the WBC ([…], time 14 day) was 101.8 x10_2/uL and the APTT ([…], time 28 day) was 17.5 s. It also gave a Bas ([…], time 28 day) of 0%, an Eos ([…], time 28 day) of 1.2% and a Fbg ([…], time 28 day) of 337 mg/dL. It also gave a Hb ([…], time 28 day) of 15.6 g/dL, a Ht ([…], time 28 day) of 43.7% and a Lym ([…], time 28 day) of 77%. For the same compound, the MCH ([…], time 28 day) was 19.9 pg, the MCHC ([…], time 28 day) was 35.6% and the MCV ([…], time 28 day) was 55.8 fL. It also gave a Mono ([…], time 28 day) of 2.6%, a Neu ([…], time 28 day) of 18.8% and a PT ([…], time 28 day) of 13.6 s. For the same compound, the Plat ([…], time 28 day) was 99.5 x10_4/uL, the RBC ([…], time 28 day) was 783.4 x10_4/ul and the Ret ([…], time 28 day) was 3%. The WBC ([…], time 28 day) was 101.5 x10_2/uL, the KIDNEY_L ([…], time 7 day) was 1.1 g and the KIDNEY_R ([…], time 7 day) was 1.2 g. It also gave a KIDNEY_TOTAL ([…], time 7 day) of 2.3 g, a KIDNEY_L ([…], time 14 day) of 1.3 g and a KIDNEY_R ([…], time 14 day) of 1.3 g. For the same compound, the KIDNEY_TOTAL ([…], time 14 day) was 2.6 g, the KIDNEY_L ([…], time 28 day) was 1.6 g and the KIDNEY_R ([…], time 28 day) was 1.5 g. The KIDNEY_TOTAL ([…], time 28 day) was 3.2 g, the LIVER ([…], time 7 day) was 13.1 g and the LIVER ([…], time 14 day) was 15 g. The LIVER ([…], time 28 day) was 17.8 g, the A/G ([…], time 7 day) was 0.9 and the ALP ([…], time 7 day) was 2042.4 IU/L. For the same compound, the ALT ([…], time 7 day) was 46.8 IU/L, the AST ([…], time 7 day) was 71.6 IU/L and the BUN ([…], time 7 day) was 16.6 mg/dL. It also gave a CRE ([…], time 7 day) of 0.2 mg/dL, a Ca ([…], time 7 day) of 11 mg/dL and a Cl ([…], time 7 day) of 105.4 meq/L. For the same compound, the DBIL ([…], time 7 day) was 0.028 mg/dL, the GLC ([…], time 7 day) was 194.8 mg/dL and the IP ([…], time 7 day) was 8 mg/dL. The K ([…], time 7 day) was 4 meq/L, the LDH ([…], time 7 day) was 100 IU/L and the Na ([…], time 7 day) was 143 meq/L. The PL ([…], time 7 day) was 133.6 mg/dL, the RALB ([…], time 7 day) was 2.7 g/dL and the TBIL ([…], time 7 day) was 0.028 mg/dL. It also gave a TC ([…], time 7 day) of 45.8 mg/dL, a TG ([…], time 7 day) of 238.4 mg/dL and a TP ([…], time 7 day) of 5.9 g/dL. It also gave a gamma-GTP ([…], time 7 day) of 1.2 IU/L, an A/G ([…], time 14 day) of 0.8 and an ALP ([…], time 14 day) of 1318.6 IU/L. It also gave an ALT ([…], time 14 day) of 64.2 IU/L, an AST ([…], time 14 day) of 76.2 IU/L and a BUN ([…], time 14 day) of 15 mg/dL. The CRE ([…], time 14 day) was 0.2 mg/dL, the Ca ([…], time 14 day) was 10.6 mg/dL and the Cl ([…], time 14 day) was 105.2 meq/L. The DBIL ([…], time 14 day) was 0.018 mg/dL, the GLC ([…], time 14 day) was 198.8 mg/dL and the IP ([…], time 14 day) was 7.9 mg/dL. For the same compound, the K ([…], time 14 day) was 4.1 meq/L, the LDH ([…], time 14 day) was 118.2 IU/L and the Na ([…], time 14 day) was 141.6 meq/L. It also gave a PL ([…], time 14 day) of 137.8 mg/dL, an RALB ([…], time 14 day) of 2.8 g/dL and a TBIL ([…], time 14 day) of 0.026 mg/dL. The TC ([…], time 14 day) was 52.8 mg/dL, the TG ([…], time 14 day) was 157 mg/dL and the TP ([…], time 14 day) was 6.1 g/dL. For the same compound, the gamma-GTP ([…], time 14 day) was 1.2 IU/L, the A/G ([…], time 28 day) was 0.8 and the ALP ([…], time 28 day) was 1264.2 IU/L. The ALT ([…], time 28 day) was 43 IU/L, the AST ([…], time 28 day) was 59.8 IU/L and the BUN ([…], time 28 day) was 13.8 mg/dL. The CRE ([…], time 28 day) was 0.2 mg/dL, the Ca ([…], time 28 day) was 11.1 mg/dL and the Cl ([…], time 28 day) was 103 meq/L. The DBIL ([…], time 28 day) was 0.028 mg/dL, the GLC ([…], time 28 day) was 189.2 mg/dL and the IP ([…], time 28 day) was 6.4 mg/dL. It also gave a K ([…], time 28 day) of 3.7 meq/L, an LDH ([…], time 28 day) of 99.4 IU/L and a Na ([…], time 28 day) of 143 meq/L. The PL ([…], time 28 day) was 141 mg/dL, the RALB ([…], time 28 day) was 2.8 g/dL and the TBIL ([…], time 28 day) was 0.028 mg/dL. It also gave a TC ([…], time 28 day) of 41.2 mg/dL, a TG ([…], time 28 day) of 321.6 mg/dL and a TP ([…], time 28 day) of 6.4 g/dL. For the same compound, the gamma-GTP ([…], time 28 day) was 1 IU/L.
